For one experiment, the system named is E. coli 25922. The experiment in a line: Antibacterial activity, microbroth dilution MIC (Table 1). In kind it is cell-based, Escherichia coli. As to conditions: Escherichia coli; microbroth dilution; control Gram-negative E. coli 25922 strain; read-out: MIC, 25922. An outline of the steps: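 Each strain is exposed to test compound in a microbroth dilution series; visible growth is scored macroscopically, and the lowest growth-free concentration is recorded as MIC in μg/mL.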
A general note: In broth dilution the organism is exposed to a series of concentrations in liquid medium.

In experiment [1] the test system is Escherichia coli (E. coli) BAS849. The experiment is described as above. In kind it is cell-based. To be noted: microbroth dilution, super sensitive Gram-negative E. coli BAS849, read-out: MIC, BAS849. Summed up: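 Values are MICs (μg/mL): the smallest drug amount at which macroscopically visible bacterial growth is absent under assay conditions, from a microdilution method in broth.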

Experiment [2] relates to Staphylococcus aureus (S. aureus) 29213. The experiment is described as above. In kind it is cell-based. To be noted: microbroth dilution, Gram-positive S. aureus 29213, read-out: MIC, 29213. An outline of the steps:
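Broth microdilution; endpoint = no macroscopic growth; value = lowest inhibiting concn, μg/mL.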

Experiment [3] has as its system Pseudomonas aeruginosa (P. aeruginosa) 27853. The experiment in a line: Antibacterial activity, MIC (Table 5). The experiment is classed as cell-based. As to conditions: P. aeruginosa 27853, read-out: MIC, 27853. An outline of the steps:
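Using a microbroth dilution format, the minimum inhibitory concentration was recorded as the lowest tested concentration that stopped visible bacterial growth, expressed in μg/mL.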

Another experiment deals with E. coli LZ3111. In words: Antibacterial activity, MIC, quinolone resistant strain (Table 2). In kind it is cell-based. To be noted: Escherichia coli, LZ3111, read-out: MIC LZ3111. An outline of the steps:
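Growth inhibition assessed by serial drug dilution in broth; endpoint was absence of macroscopically visible growth, reported as MIC, μg/mL.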

In experiment [4] the test system is Acinetobacter baumannii (A. baumannii) BAA747. In words: Antibacterial activity, MIC (Table 4). To be noted: A. baumannii BAA747, read-out: MIC, BAA747. In kind it is cell-based. An outline of the steps: (§1)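 Compounds are serially diluted in microbroth, bacteria are grown under the test conditions, and growth is then inspected macroscopically. The lowest concentration without visible growth is reported as the MIC (μg/mL).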

Experiment [5] has as its system Klebsiella pneumoniae (K. pneumoniae) 35657. The experiment in a line: Antibacterial activity, MIC (Table 4). In kind it is cell-based. To be noted: K. pneumoniae 35657, read-out: MIC, 35657. Summed up: as §1
For another experiment, the system named is A. baumannii MXX2240. The experiment in a line: Antibacterial activity, MIC, resistant strain (Table 4). In kind it is cell-based. As to conditions: Acinetobacter baumannii, MXX2240; resistant A. baumannii MMX2240, multi-drug resistant clinical isolate; read-out: MIC, MMX2240. An outline of the steps:
as §1

In another experiment the test system is K. pneumoniae MXX1232. Described as above. The experiment is classed as cell-based. As to conditions: Klebsiella pneumoniae, MXX1232; resistant K. pneumoniae MMX1232, multi-drug resistant clinical isolate; read-out: MIC, MMX1232. An outline of the steps: as §1

Values after ≈ are worked out from the molar mass of the structure shown.

One may read the MIC as the least concentration at which growth counts as inhibited. As for `CCc1c(-c2ccc3[nH]ccc3c2)[nH]c(=O)c(C(=O)O)c1O` [Cpd 425, 5-ethyl-4-hydroxy-6-(1H-indol-5-yl)-2-oxo-1,2-dihydropyridine-3-carboxylic acid], the MIC with E. coli 25922 was 1 to 3.5 µg/mL (≈ 3.35 to 11.7 µM); in experiment [1] it was < 1 µg/mL; in experiment [2], 3.5 to 12.5 µg/mL (≈ 11.7 to 41.9 µM); in experiment [3] it was 12.5 to 150 µg/mL (≈ 41.9 to 503 µM); with E. coli LZ3111, 1 to 3.5 µg/mL (≈ 3.35 to 11.7 µM); in experiment [4] it was 3.5 to 12.5 µg/mL (≈ 11.7 to 41.9 µM). Further, the MIC in experiment [5] was 1 to 3.5 µg/mL (≈ 3.35 to 11.7 µM); in the experiment on A. baumannii MXX2240, < 1 µg/mL; in the experiment on K. pneumoniae MXX1232, 12.5 to 150 µg/mL (≈ 41.9 to 503 µM).
As to `Cc1c(-c2ccc3[nH]ccc3c2)[nH]c(=O)c(C(=O)O)c1O` [Cpd 426, 4-hydroxy-6-(1H-indol-5-yl)-5-methyl-2-oxo-1,2-dihydropyridine-3-carboxylic acid], the MIC in the experiment on E. coli 25922 was 12.5 to 150 µg/mL (≈ 44 to 528 µM); in experiment [1], 3.5 to 12.5 µg/mL (≈ 12.3 to 44 µM); in experiment [2], 12.5 to 150 µg/mL (≈ 44 to 528 µM); in [3], 12.5 to 150 µg/mL (≈ 44 to 528 µM); in the experiment with E. coli LZ3111, < 1 µg/mL; in experiment [4] it was 12.5 to 150 µg/mL (≈ 44 to 528 µM). Also, the MIC in experiment [5] was 12.5 to 150 µg/mL (≈ 44 to 528 µM); with A. baumannii MXX2240, < 1 µg/mL; with K. pneumoniae MXX1232 it was 12.5 to 150 µg/mL (≈ 44 to 528 µM).
On to `Cc1c(-c2ccc3c(c2)CC(=O)N3)[nH]c(=O)c(C(=O)O)c1O` [Cpd 427, 4-hydroxy-5-methyl-2-oxo-6-(2-oxoindolin-5-yl)-1,2-dihydropyridine-3-carboxylic acid], for which the MIC (in the experiment on E. coli 25922; in [1]; in experiment [2]; in [3]; with E. coli LZ3111; in experiment [4]) was 12.5 to 150 µg/mL (≈ 41.6 to 500 µM) each time. Moreover, the MIC (in experiment [5]; in the experiment with A. baumannii MXX2240; in the experiment on K. pneumoniae MXX1232) was 12.5 to 150 µg/mL (≈ 41.6 to 500 µM) throughout.
For `CCc1c(-c2ccc3cc(N(C)C)ccc3c2)[nH]c(=O)c(C(=O)O)c1O` [Cpd 428, 6-(6-(dimethylamino)naphthalen-2-yl)-5-ethyl-4-hydroxy-2-oxo-1,2-dihydropyridine-3-carboxylic acid], the MIC in the experiment on E. coli 25922 is 12.5 to 150 µg/mL (≈ 35.5 to 426 µM); in [1], < 1 µg/mL; in experiment [2], < 1 µg/mL; in experiment [3] it was 12.5 to 150 µg/mL (≈ 35.5 to 426 µM); in the experiment with E. coli LZ3111, 12.5 to 150 µg/mL (≈ 35.5 to 426 µM); in [4], 12.5 to 150 µg/mL (≈ 35.5 to 426 µM). For the same compound, the minimum inhibitory concentration (MIC) (in experiment [5]; with A. baumannii MXX2240; in the experiment on K. pneumoniae MXX1232) was 12.5 to 150 µg/mL (≈ 35.5 to 426 µM) throughout.
`CCc1c(-c2ccc3cc(C)cn3c2)[nH]c(=O)c(C(=O)O)c1O` [Cpd 429, 5-ethyl-4-hydroxy-6-(2-methylindolizin-6-yl)-2-oxo-1,2-dihydropyridine-3-carboxylic acid]: the MIC (in the experiment on E. coli 25922; in [1]; in [2]; in experiment [3]; with E. coli LZ3111; in experiment [4]) was 12.5 to 150 µg/mL (≈ 40 to 480 µM) throughout. The MIC (in experiment [5]; in the experiment on A. baumannii MXX2240; in the experiment with K. pneumoniae MXX1232) was 12.5 to 150 µg/mL (≈ 40 to 480 µM) throughout.
Regarding `CCc1c(-c2cnc3cc[nH]c3c2)[nH]c(=O)c(C(=O)O)c1O` [Cpd 430, 5-ethyl-4-hydroxy-2-oxo-6-(1H-pyrrolo[3,2-b]pyridin-6-yl)-1,2-dihydropyridine-3-carboxylic acid], the MIC (with E. coli 25922; in experiment [1]; in experiment [2]; in experiment [3]; in the experiment with E. coli LZ3111; in [4]) was 12.5 to 150 µg/mL (≈ 41.8 to 501 µM) in each case. Further, the MIC (in experiment [5]; with A. baumannii MXX2240; with K. pneumoniae MXX1232) was 12.5 to 150 µg/mL (≈ 41.8 to 501 µM) each time.
With `Cc1c(-c2cnc3cc[nH]c3c2)[nH]c(=O)c(C(=O)O)c1O` [Cpd 431, 4-hydroxy-5-methyl-2-oxo-6-(1H-pyrrolo[3,2-b]pyridin-6-yl)-1,2-dihydropyridine-3-carboxylic acid], the MIC (with E. coli 25922; in experiment [1]; in [2]; in experiment [3]; in the experiment on E. coli LZ3111; in [4]) was 12.5 to 150 µg/mL (≈ 43.8 to 526 µM) in each case. Besides, the MIC (in [5]; in the experiment with A. baumannii MXX2240; in the experiment with K. pneumoniae MXX1232) was 12.5 to 150 µg/mL (≈ 43.8 to 526 µM) in each case.

Values taken from US9409905B2, “Antibacterial compounds and methods for use” (PTC THERAPEUTICS, INC., priority 2011, dated 2016).
